Patent US12351561B2, “Crystalline (2S,4R)-5-(5'-chloro-2'-fluoro-[1,1'-biphenyl]-4-yl)-2-(ethoxymethyl)-4-(3-hydroxyisoxazole-5-carboxamido)-2-methylpentanoic acid and uses thereof” (THERAVANCE BIOPHARMA R&D IP, LLC, priority 2016, dated 2025)
Each block holds one compound with its values, some of them ahead of it.

Legend:
[1] = healthy subjects; cited from earlier work
[2] = target: human neprilysin (NEP) (Homo sapiens, UniProt P08473); assay: in vitro human neprilysin inhibitor activity (pKi); format: biochemical
Chain of human neprilysin (NEP) (P08473 whole entry): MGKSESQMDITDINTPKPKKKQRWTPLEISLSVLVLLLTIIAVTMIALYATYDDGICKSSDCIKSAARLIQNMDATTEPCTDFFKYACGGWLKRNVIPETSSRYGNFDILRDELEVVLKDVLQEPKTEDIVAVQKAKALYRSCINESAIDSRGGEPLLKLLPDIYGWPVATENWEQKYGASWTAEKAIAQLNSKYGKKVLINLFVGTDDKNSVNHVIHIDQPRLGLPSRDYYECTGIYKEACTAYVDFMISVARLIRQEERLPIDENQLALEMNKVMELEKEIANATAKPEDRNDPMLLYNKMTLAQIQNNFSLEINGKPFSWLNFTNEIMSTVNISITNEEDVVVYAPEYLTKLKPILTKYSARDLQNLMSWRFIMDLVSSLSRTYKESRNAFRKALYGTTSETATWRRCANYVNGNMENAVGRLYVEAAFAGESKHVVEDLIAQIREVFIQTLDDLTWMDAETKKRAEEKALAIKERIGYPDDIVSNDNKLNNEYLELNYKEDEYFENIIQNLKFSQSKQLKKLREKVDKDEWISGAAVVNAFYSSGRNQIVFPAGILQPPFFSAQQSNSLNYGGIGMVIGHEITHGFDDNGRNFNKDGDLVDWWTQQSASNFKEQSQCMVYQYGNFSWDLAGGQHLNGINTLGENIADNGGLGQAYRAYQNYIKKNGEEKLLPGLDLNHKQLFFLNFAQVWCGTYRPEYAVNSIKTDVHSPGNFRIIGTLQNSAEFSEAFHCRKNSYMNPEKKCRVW
Excerpt: One measure of the ability of a compound to inhibit NEP activity is the inhibition constant (pKi). The pKi value is the negative logarithm to base 10 of the dissociation constant (Ki), which is typically reported in molar units. The compound of the invention has a pKi at NEP≥9.0.
The in vitro-to-in vivo extrapolation of drug behavior in a subject continues to improve (see, e.g., Chiba et al., AAPS J., 2009 June; 11 (2): 262-276). In the present invention, in vitro human neprilysin inhibitor activity was assessed in order to determine neprilysin inhibitory activity of Compound I and crystalline form I′. A threshold of pKi>9.0 was met. However, additional in vivo experiments were further performed in order to more accurately predict the behavior of Compound I and crystalline form I′ in a subject.

[3] = Dynamic moisture sorption (DMS) assessment; format: physicochemical
Protocol: In one embodiment, crystalline form I′ is characterized by the DMS isotherm in FIG. 4. […] The total moisture gain observed is less than 0.02% by weight when exposed to 5-90% relative humidity. No significant hysteresis is found between two consecutive sorption-desorption cycles. […] The crystalline form I′ remains non-hygroscopic and therefore may be characterized as anhydrous, non-hygroscopic or both.
DMS measurements were performed using a VTI atmospheric microbalance, SGA-100 system (VTI Corp., Hialeah, FL 33016). A weighed sample was used and the humidity was lowest possible value (close to 0% relative humidity) at the start of the analysis. The DMS analysis consisted of a scan rate of 5% relative humidity/step over the full humidity range of 5-90%. The DMS run was performed isothermally at 25° C.

[4] = target: T1, NEP (Homo sapiens, UniProt P08473); assay: Assay 4.1: NEP activity in human (cGMP), multiple-ascending dose study; format: in vivo; settings: once-daily dose, trough (0 h) up to 24 h
T1 construct: from tissue; host or cells: healthy human volunteers (in vivo)
T1 sequence (P08473 whole entry): as above
Protocol: The Phase 1 study was a double-blind, randomized placebo-controlled multiple ascending dose study in healthy male and female volunteers randomized in a 4:1 ratio. The study enrolled 50 healthy adult (19-55 years old) and elderly (65-80 years old) volunteers over multiple weeks for the ascending-dose portion, which included cohorts (n=10/cohort of 8 active and 2 placebo) administered (1) ascending doses of 50 mg, 100 mg, and 200 mg, (2) a dose of 10 mg studied in parallel with 200 mg for PK/PK, and (3) a dose of 100 mg for one elderly cohort. […] Additionally, renal elimination of Compound I was neglible after multiple dosing, e.g., <1% was observed on Day 1 and Day 14 for all subjects.
Part of the MAD clinical studies was to determine the mechanism/duration of action of Compound I after dosing in humans.

[5] = Stability study of crystalline form (25° C./60% RH and accelerated 40° C./75% RH); format: physicochemical
Protocol: One challenge in pharmaceutical drug development relates to discovering a stable, crystalline form of a drug having a reasonably high melting point. One challenge of the present invention was that small crystals of the free acid of Compound I were difficult to obtain with the favorable physical properties mentioned above. Once achieved, the small crystals melted around 216° C. and an accelerated stability study of Compound I′ was conducted at the temperatures and % relative humidity (RH) reported below.

[6] = Assay 3.2: PK profile, oral bioavailability and renal excretion in human (SAD, 14C i.v. microtracer); format: in vivo; settings: human, SAD clinical trial, confirmed by intravenous microtracer
Protocol: A Phase 1 single-ascending dose (SAD) clinical trial of Compound I′ (Form I), which converts to or dissolves to provide its soluble form Compound I in the body, was conducted in order to assess neprilysin inhibition for the treatment of a range of cardiovascular and renal diseases, including, e.g., chronic kidney disease, diabetic nephropathy, acute and chronic heart failure, heart failure with reduced ejection fraction, heart failure with preserved ejection fraction, post-myocardial infarction asymptomatic left ventricular dysfunction (post-MI asymptomatic LVD), subacute heart failure and resistant and isolated systolic hypertension. Safety and tolerability, pharmacokinetic (support for QD/BID dosing and non-renal excretion), pharmacodynamic (test for target engagement biomarkers cGMP and ANP), food effect, and absolute oral bioavailability and renal elimination using a ^14C intravenous microtracer, inter alia, were tested.
The Phase 1 study was a double-blind, randomized placebo-controlled single ascending dose study in healthy male and female volunteers randomized in a 4:1 ratio. The study enrolled 56 healthy volunteers over multiple weeks for the ascending-dose portion, which included cohorts (n=10/cohort of 8 active and 2 placebo) administered single ascending doses of 50 mg, 100 mg, 200 mg, 400 mg and 600 mg. A sixth cohort (n=6) was administered i.v. microtracer and oral doses of 10 μg and 100 mg, respectively.

SMILES: CCOC(=O)[C@H](C)C[C@@H](Cc1ccc(-c2ccccc2)cc1)NC(=O)CCC(=O)O [sacubitril]
renal elimination [1]: 60%

Ki [2]: ≤ 1 nM
hygroscopicity (DMS isotherm) ([3]; 5-90% relative humidity, two sorption-desorption cycles): non-hygroscopic solid
total moisture gain ([3]; exposed to 5-90% relative humidity, 25° C.): less than 0.02 % by weight
time for which the crystalline form remains stable ([5]; 25° C., 60% RH): at least 18 months
Assay ([5]; 25° C., 60% RH, 0 months): 98.6 % (w/w)
Water Content ([5]; 25° C., 60% RH, 0 months, LOQ = 0.2%): <LOQ
Assay ([5]; 25° C., 60% RH, 3 months): 98.5 % (w/w)
Assay ([5]; 25° C., 60% RH, 6 months): 99.2 % (w/w)
Water Content ([5]; 25° C., 60% RH, 6 months, LOQ = 0.19%): <LOQ
Assay ([5]; 25° C., 60% RH, 9 months): 99.0 % (w/w)
Assay ([5]; 25° C., 60% RH, 12 months): 99.2 % (w/w)
Water Content ([5]; 25° C., 60% RH, 12 months, LOQ = 0.19%): <LOQ
Assay ([5]; 25° C., 60% RH, 18 months): 99.1 % (w/w)
Assay ([5]; 40° C., 75% RH (accelerated), 0 months): 98.6 % (w/w)
Water Content ([5]; 40° C., 75% RH (accelerated), 0 months, LOQ = 0.2%): <LOQ
Assay ([5]; 40° C., 75% RH (accelerated), 1 month): 98.5 % (w/w)
Assay ([5]; 40° C., 75% RH (accelerated), 3 months): 98.6 % (w/w)
Water Content ([5]; 40° C., 75% RH (accelerated), 3 months, LOQ = 0.22%): <LOQ
Assay ([5]; 40° C., 75% RH (accelerated), 6 months): 99.0 % (w/w)
Water Content ([5]; 40° C., 75% RH (accelerated), 6 months, LOQ = 0.19%): <LOQ
time for which the crystalline form remains stable ([5]; measured by accelerated conditions of 40° C., 75% RH (6 months taken as equivalent to 2 years at 25° C., 60% RH)): at least 2 years
renal elimination (of total administered dose) [6]: less than 1%
SMILES: CCOC[C@](C)(C[C@@H](Cc1ccc(-c2cc(Cl)ccc2F)cc1)NC(=O)c1cc(O)no1)C(=O)O [Compound I′, (2S,4R)-5-(5′-chloro-2′-fluoro-[1,1′-biphenyl]-4-yl)-2-(ethoxymethyl)-4-(3-hydroxyisoxazole-5-carboxamido)-2-methylpentanoic acid]
target engagement (plasma cGMP) on Day 14 [4]: target engagement of all doses at trough (0 h) as well as all doses measured up to 24 h
water detected ([5]; at 12-months): no quantifiable amount of water is detected
